In patent US10689343B2, “Inhibitors of tryptophan 2,3-dioxygenase” (NETHERLANDS TRANSLATIONAL RESEARCH CENTER B.V., priority 2016, dated 2020):
Several values for one entry are separate records, joined by “and”; a condition that tells them apart may be missing. Equal values may be shown once.

Assays:
[1] = biological target: T1, Recombinant TDO (Homo sapiens, UniProt P48775); experiment: Biochemical assay for TDO (NFK GreenScreen); conditions: 50 nM TDO, 200 μM L-tryptophan
T1 construct: Recombinant TDO (Seegers, N., et al.) and all other assay components were diluted in TDO reaction buffer
In short: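 Recombinant human TDO (50 nM) preincubated with compound 60 min at room temperature in 100 mM NaH2PO4 pH 7.0, 0.02% Tween-20, with ascorbic acid. Reaction then run 15 min with 200 μM L-tryptophan (final), 0.3% DMSO. NFK product detected by NFK Green fluorescence after 3 h at 37° C; IC50 derived.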

[2] = biological target: CYP2D6 (Homo sapiens, UniProt P10635); experiment: P450-Glo CYP2D6 Luc-IP assay
[3] = biological target: T2, TDO in SW48 colorectal carcinoma cells (Homo sapiens, UniProt P48775); experiment: Cell-based assay for TDO in SW48 colorectal carcinoma cells (NFK GreenScreen); conditions: 18 hours with L-tryptophan, read-out: IC50 on TDO in cells
T2 construct: Endogenous expression of TDO has been determined in a variety of cancer cell lines; host or cells: SW48 colorectal carcinoma cells

[4] = biological target: CYP3A4 (Homo sapiens, UniProt P08684); experiment: P450-Glo CYP3A4 luciferin isopropylacetal (Luc-IP) assay
CYP3A4, sequence (P08684 whole entry): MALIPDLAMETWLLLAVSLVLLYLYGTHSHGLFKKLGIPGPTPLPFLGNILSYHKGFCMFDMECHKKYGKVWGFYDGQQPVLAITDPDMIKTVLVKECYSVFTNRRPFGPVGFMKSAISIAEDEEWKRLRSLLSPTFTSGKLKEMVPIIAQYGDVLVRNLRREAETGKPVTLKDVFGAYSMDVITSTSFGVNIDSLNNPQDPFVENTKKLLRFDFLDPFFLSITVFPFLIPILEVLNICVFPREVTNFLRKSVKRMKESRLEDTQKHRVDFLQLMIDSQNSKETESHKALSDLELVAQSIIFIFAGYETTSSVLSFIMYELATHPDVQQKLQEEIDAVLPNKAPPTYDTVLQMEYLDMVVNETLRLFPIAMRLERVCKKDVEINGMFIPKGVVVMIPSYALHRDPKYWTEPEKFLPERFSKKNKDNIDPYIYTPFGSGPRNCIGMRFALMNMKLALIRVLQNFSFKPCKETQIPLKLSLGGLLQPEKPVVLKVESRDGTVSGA

CYP2D6, sequence (P10635 whole entry): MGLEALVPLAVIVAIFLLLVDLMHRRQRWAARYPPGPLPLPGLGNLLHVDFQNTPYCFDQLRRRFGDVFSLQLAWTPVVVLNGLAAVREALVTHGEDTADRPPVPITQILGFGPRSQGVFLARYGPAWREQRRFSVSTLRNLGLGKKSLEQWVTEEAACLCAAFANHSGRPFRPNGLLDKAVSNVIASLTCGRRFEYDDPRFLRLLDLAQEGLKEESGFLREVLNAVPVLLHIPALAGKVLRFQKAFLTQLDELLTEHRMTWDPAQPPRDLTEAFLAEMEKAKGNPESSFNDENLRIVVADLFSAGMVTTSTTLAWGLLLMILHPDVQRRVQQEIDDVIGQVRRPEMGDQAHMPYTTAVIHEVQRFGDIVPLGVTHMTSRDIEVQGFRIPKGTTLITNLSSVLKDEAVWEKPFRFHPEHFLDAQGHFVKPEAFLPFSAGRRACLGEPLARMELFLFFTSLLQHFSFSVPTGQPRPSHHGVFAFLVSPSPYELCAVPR
T1 sequence (P48775 whole entry): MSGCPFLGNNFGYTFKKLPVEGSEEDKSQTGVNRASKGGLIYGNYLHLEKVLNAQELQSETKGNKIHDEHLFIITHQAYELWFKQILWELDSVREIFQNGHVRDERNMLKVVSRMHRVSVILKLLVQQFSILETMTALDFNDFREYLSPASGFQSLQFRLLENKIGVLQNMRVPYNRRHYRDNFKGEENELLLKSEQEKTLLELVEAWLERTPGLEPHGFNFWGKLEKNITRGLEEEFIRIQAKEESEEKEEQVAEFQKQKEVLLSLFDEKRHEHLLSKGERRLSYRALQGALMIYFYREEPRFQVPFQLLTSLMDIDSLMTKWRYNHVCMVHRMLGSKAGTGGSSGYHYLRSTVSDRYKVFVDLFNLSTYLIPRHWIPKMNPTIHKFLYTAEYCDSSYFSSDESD
T2 sequence (P48775 whole entry): as above

Structure (SMILES) | IC50 [1] | IC50 [2] | IC50 [3] | IC50 [4]
C[C@H](CO)NC(=O)c1ccc(-c2c[nH]c3cc(F)ccc23)c(F)c1 [Example 117, 3-Fluoro-4-(6-fluoro-1H-indol-3-yl)-N-[(1R)-2-hydroxy-1-methyl-ethyl]benzamide] | < 1 µM | 5 to 10 µM | ≤ 0.5 µM and 0.2 to 0.5 µM | 5 to 10 µM
NS(=O)(=O)N1CCCC(NC(=O)c2ccc(-c3c[nH]c4cc(F)ccc34)cc2)C1 (stereo not shown) [Example 132, 4-(6-Fluoro-1H-indol-3-yl)-N-(1-sulfamoyl-3-piperidyl)benzamide] | 1 to 5 µM | > 10 µM | ≤ 0.5 µM and 0.2 to 0.5 µM | > 10 µM
O=C(N[C@@H]1CCCNC1)c1ccc(-c2c[nH]c3cc(F)ccc23)cc1 [Example 36, 4-(6-Fluoro-1H-indol-3-yl)-N-[(3R)-3-piperidyl]benzamide] | < 1 µM | > 10 µM | ≤ 0.5 µM and 0.2 to 0.5 µM | > 10 µM
CN(C)CC(O)CNC(=O)c1ccc(-c2c[nH]c3cc(F)ccc23)cc1 (stereo not shown) [Example 78, N-[3-(dimethylamino)-2-hydroxy-propyl]-4-(6-fluoro-1H-indol-3-yl)benzamide] | < 1 µM | > 10 µM | ≤ 0.2 µM | > 10 µM
CC(N)CNC(=O)c1ccc(-c2c[nH]c3cc(F)ccc23)cc1Cl (stereo not shown) [Example 71, N-(2-aminopropyl)-2-chloro-4-(6-fluoro-1H-indol-3-yl)benzamide] | < 1 µM | > 10 µM | ≤ 0.2 µM | 5 to 10 µM
N[C@@H]1CCC[C@H](C(=O)Nc2ccc(-c3c[nH]c4cc(F)ccc34)cc2)C1 [Example 105, (1S,3R)-3-amino-N-[4-(6-fluoro-1H-indol-3-yl)phenyl]cyclohexanecarboxamide] | < 1 µM | > 10 µM | ≤ 0.5 µM and 0.2 to 0.5 µM | > 10 µM
CC(O)C(C)NC(=O)c1ccc(-c2c[nH]c3cc(F)ccc23)cc1 (stereo not shown) [Example 21, 4-(6-Fluoro-1H-indol-3-yl)-N-(2-hydroxy-1-methyl-propyl)benzamide] | < 1 µM | > 10 µM | ≤ 0.2 µM | > 10 µM
CN1CCN(CCCNC(=O)c2ccc(-c3c[nH]c4cc(F)ccc34)cc2Cl)CC1 [Example 72, 2-Chloro-4-(6-fluoro-1H-indol-3-yl)-N-[3-(4-methylpiperazin-1-yl)propyl]benzamide] | < 1 µM | 5 to 10 µM | ≤ 0.2 µM | 5 to 10 µM
O=C(N[C@@H](CO)c1ccccc1)c1ccc(-c2c[nH]c3cc(F)ccc23)cc1 [Example 16, 4-(6-fluoro-1H-indol-3-yl)-N-[(1R)-2-hydroxy-1-phenyl-ethyl]benzamide] | 1 to 5 µM | 5 to 10 µM | ≤ 0.5 µM and 0.2 to 0.5 µM | 5 to 10 µM
CS(=O)(=O)CC(=O)Nc1ccc(-c2c[nH]c3cc(F)ccc23)cc1 [Example 80, N-[4-(6-fluoro-1H-indol-3-yl)phenyl]-2-methylsulfonyl-acetamide] | 1 to 5 µM | > 10 µM | ≤ 0.2 µM | > 10 µM
COc1cc(-c2c[nH]c3cc(F)ccc23)ccc1C(=O)N[C@@H](C)CO [Example 136, 4-(6-Fluoro-1H-indol-3-yl)-N-[(1S)-2-hydroxy-1-methyl-ethyl]-2-methoxy-benzamide] | < 1 µM | > 10 µM | ≤ 0.5 µM and 0.2 to 0.5 µM | > 10 µM
O=C(NCCN1CCCCC1)c1ccc(-c2c[nH]c3cc(F)ccc23)cc1 [Example 46, 4-(6-Fluoro-1H-indol-3-yl)-N-[2-(1-piperidyl)ethyl]benzamide] | < 1 µM | > 10 µM | ≤ 0.5 µM and 0.2 to 0.5 µM | 5 to 10 µM
O=C(NC[C@@H]1CCNC1)c1ccc(-c2c[nH]c3cc(F)ccc23)cc1 [Example 95, 4-(6-Fluoro-1H-indol-3-yl)-N-[[(3R)-pyrrolidin-3-yl]methyl]benzamide] | < 1 µM | > 10 µM | ≤ 0.5 µM and 0.2 to 0.5 µM | > 10 µM

Further lines, results first:

IC50 [1] | IC50 [2] | IC50 [3] | IC50 [4] | Structure (SMILES)
< 1 µM | > 10 µM | ≤ 0.2 µM | > 10 µM | CC(CN(C)C)NC(=O)c1ccc(-c2c[nH]c3cc(F)ccc23)cc1 (stereo not shown) [Example 1, N-[2-(dimethylamino)-1-methyl-ethyl]-4-(6-fluoro-1H-indol-3-yl)benzamide]
< 1 µM | > 10 µM | ≤ 0.5 µM and 0.2 to 0.5 µM | > 10 µM | O=C(Nc1ccc(-c2c[nH]c3cc(F)ccc23)cc1)[C@@H]1CCCNC1 [Example 131, (3R)—N-[4-(6-fluoro-1H-indol-3-yl)phenyl]piperidine-3-carboxamide]
< 1 µM | > 10 µM | ≤ 0.5 µM and 0.2 to 0.5 µM | > 10 µM | CN(C)CCCNC(=O)c1c(F)cc(-c2c[nH]c3cc(F)ccc23)cc1F [Example 59, N-[3-(dimethylamino)propyl]-2,6-difluoro-4-(6-fluoro-1H-indol-3-yl)benzamide]
< 1 µM | > 10 µM | ≤ 0.5 µM and 0.2 to 0.5 µM | 5 to 10 µM | O=C(CC1CNCCO1)Nc1ccc(-c2c[nH]c3cc(F)ccc23)cc1 (stereo not shown) [Example 102, N-[4-(6-fluoro-1H-indol-3-yl)phenyl]-2-morpholin-2-yl-acetamide]
< 1 µM | > 10 µM | ≤ 0.2 µM | 5 to 10 µM | CC(CN(C)C)NC(=O)c1ccc(-c2c[nH]c3cc(F)ccc23)cc1Cl (stereo not shown) [Example 82, 2-Chloro-N-[2-(dimethylamino)-1-methyl-ethyl]-4-(6-fluoro-1H-indol-3-yl)benzamide]
< 1 µM | > 10 µM | ≤ 0.5 µM and 0.2 to 0.5 µM | > 10 µM | C[C@H](CO)NC(=O)c1ccc(-c2c[nH]c3cc(F)ccc23)cc1F [Example 129, 2-Fluoro-4-(6-fluoro-1H-indol-3-yl)-N-[(1R)-2-hydroxy-1-methyl-ethyl]benzamide]
< 1 µM | > 10 µM | ≤ 0.2 µM | > 10 µM | O=C(NC[C@@H]1CCCN1)c1ccc(-c2c[nH]c3cc(F)ccc23)cc1 [Example 84, 4-(6-Fluoro-1H-indol-3-yl)-N-[[(2S)-pyrrolidin-2-yl]methyl]benzamide]
< 1 µM | > 10 µM | ≤ 0.5 µM and 0.2 to 0.5 µM | > 10 µM | CC(C)[C@@H](CO)NC(=O)c1ccc(-c2c[nH]c3cc(F)ccc23)cc1 [Example 3, 4-(6-Fluoro-1H-indol-3-yl)-N-[(1S)-1-(hydroxymethyl)-2-methyl-propyl]benzamide]
< 1 µM | > 10 µM | ≤ 0.5 µM and 0.2 to 0.5 µM | > 10 µM | Cc1cc(C(=O)NCCCN(C)C)ccc1-c1c[nH]c2cc(F)ccc12 [Example 127, N-[3-(dimethylamino)propyl]-4-(6-fluoro-1H-indol-3-yl)-3-methyl-benzamide]
< 1 µM | > 10 µM | ≤ 0.2 µM | > 10 µM | O=C(NC1CCCNCC1)c1ccc(-c2c[nH]c3cc(F)ccc23)cc1 (stereo not shown) [Example 83, N-(azepan-4-yl)-4-(6-fluoro-1H-indol-3-yl)benzamide]
< 1 µM | > 10 µM | ≤ 0.2 µM | > 10 µM | COc1cc(-c2c[nH]c3cc(F)ccc23)ccc1C(=O)NCCCN(C)C [Example 137, N-[3-(dimethylamino)propyl]-4-(6-fluoro-1H-indol-3-yl)-2-methoxy-benzamide]
< 1 µM | > 10 µM | ≤ 0.2 µM | > 10 µM | CC(C)NC(=O)c1ccc(-c2c[nH]c3cc(F)ccc23)cc1 [Example 2, 4-(6-Fluoro-1H-indol-3-yl)-N-isopropyl-benzamide]
< 1 µM | > 10 µM | ≤ 0.5 µM and 0.2 to 0.5 µM | 5 to 10 µM | N[C@H]1CC[C@@H](NC(=O)c2ccc(-c3c[nH]c4cc(F)ccc34)cc2)CC1 [Example 61, N-(cis-4-aminocyclohexyl)-4-(6-fluoro-1H-indol-3-yl)benzamide]
< 1 µM | > 10 µM | ≤ 0.2 µM | 5 to 10 µM | COc1cc(-c2c[nH]c3cc(F)ccc23)ccc1C(=O)N[C@H]1CCCNC1 [Example 75, 4-(6-Fluoro-1H-indol-3-yl)-2-methoxy-N-[(3S)-3-piperidyl]benzamide]
< 1 µM | > 10 µM | ≤ 0.2 µM | > 10 µM | C[C@@H](CO)NC(=O)c1ccc(-c2c[nH]c3cc(F)ccc23)cc1Cl [Example 54, 2-Chloro-4-(6-fluoro-1H-indol-3-yl)-N-[(1S)-2-hydroxy-1-methyl-ethyl]benzamide]
1 to 5 µM | > 10 µM | ≤ 0.5 µM and 0.2 to 0.5 µM | > 10 µM | O=C(Nc1ccc(-c2c[nH]c3cc(F)ccc23)cc1)C1[C@H]2COC[C@@H]12 (stereo partly drawn) [Example 100, (1R,5S)—N-[4-(6-fluoro-1H-indol-3-yl)phenyl]-3-oxabicyclo[3.1.0]hexane-6-carboxamide]
< 1 µM | > 10 µM | ≤ 0.5 µM and 0.2 to 0.5 µM | 5 to 10 µM | CO[C@H]1CNCC[C@H]1NC(=O)c1ccc(-c2c[nH]c3cc(F)ccc23)cc1 [Example 43, 4-(6-Fluoro-1H-indol-3-yl)-N-[(3S,4R)-3-methoxy-4-piperidyl]benzamide]
< 1 µM | > 10 µM | ≤ 0.2 µM | > 10 µM | CN1CCC(NC(=O)c2ccc(-c3c[nH]c4cc(F)ccc34)cc2)CC1 [Example 24, 4-(6-Fluoro-1H-indol-3-yl)-N-(1-methyl-4-piperidyl)benzamide]
